Source: patent US20050118564A1, “Methods and compositions for identification and therapeutic use of genes involved in vascular and proliferative diseases” (priority 2002, published 2005)

Legend:
Type in all cases: cell-based
[1] = test system: Endothelial and smooth muscle cells grown together; assay: IL-6 expression in co-cultures of endothelial and smooth muscle cells; settings: endothelial and smooth muscle cells mixed (1:1, 1:2, 1:4) or layered; TNFα 1 ng/ml
Description: Endothelial and smooth muscle cells were grown together in culture media (Basal medium from Clonetics) containing 0.2% albumin. The cells had either nothing added, 1ng/ml TNFα, 1 nM insulin or TNFα and insulin. The media were collected and the amount of IL-6 and MCP-1 was measured.

[2] = test system: Human aortic endothelial cells (HAEC); assay: MCP-1 secretion by human aortic endothelial cells exposed to disease stimuli (ELISA); settings: 16 hrs, stimulus alone: 1 ng/ml TNF-α, 1 nM insulin or 100 μg/ml glycated HSA
Description: (§1) Human aortic endothelial cells (HAEC) were grown with culture medium (Basal medium from Clonetics) containing 0.2% albumin with or without 1 ng/ml TNF-α or 100 μg/ml glycated-human serum albumin (HAS) or 1 nM insulin for 16 hrs. Media were collected and the amounts of […] (DuoSet ELISA development kit—R&D Systems) and MCP-1 (Quantiline Human MCP-1 kit—R&D Systems) were measured. VCAM-1 expression was measured by incubating […] with a polyclonal goat anti-human VCAM-1 antibody (R&D Systems, 1:1000 dilution) followed by development with a rabbit anti-goat IgG-conjugated with horseradish peroxidase (HRP).

Smooth muscle cells [3] = assay: IL-6 secretion by smooth muscle cells exposed to disease stimuli; settings: 1 ng/ml TNF-α, 1 nM insulin, alone or together
Smooth muscle cells [4] = assay: MCP-1 secretion by smooth muscle cells exposed to disease stimuli; settings: 1 ng/ml TNF-α, 1 nM insulin, alone or together
[5] = test system: Human aortic endothelial cells (HAEC); assay: VCAM-1 expression in human aortic endothelial cells exposed to disease stimuli; settings: 16 hrs, 1 ng/ml TNF-α, 1 nM insulin, alone or together
Description: as §1

Substance	stimulus-induced IL-6 expression in co-culture versus cells cultured separately [1]	increase in MCP-1 secretion [2]	induction of IL-6 expression (Smooth muscle cells [3])	induction of MCP-1 expression (Smooth muscle cells [4])	effect on VCAM-1 gene expression [5]
interleukin-1: cytokine used as disease stimulus in co-cultures (FIG. 8: IL-1β)	neither interleukin-1 nor glycated albumin/advanced glycation end products (AGE) showed enhanced induction	–	–	–	–
TNF-α	greatly enhanced	about 400%	only moderate induction	only moderate induction	2.8 fold
Insulin: hormone used as vascular disease stimulus, 1 nM	–	40%	only moderate induction	only moderate induction	no effect
